Assay results published in PMC6072100, “Exploring the links between peptoid antibacterial activity and toxicity” (MedChemComm, 2017).
Several values for one entry are separate records, joined by “and”; a condition that tells them apart may be missing. Equal entries are not always repeated. Where two headings read alike, the source gives them in different places. Square brackets hold non-standard residues; d marks the D form. Peptide text beside a SMILES is read from it. Gly(Nα-4-Cl-benzyl) = O=C(O)CNCc1ccc(Cl)cc1; Gly(N-(CH2)6NH2) = NCCCCCCNCC(=O)O; Gly(N-2-aminoethyl) = NCCNCC(=O)O; Nspe = C[C@H](NCC(=O)O)c1ccccc1; NhArg = N=C(N)NCCCCNCC(=O)O; NPentylGly = CCCCCNCC(=O)O; Nphe = O=C(O)CNCc1ccccc1; Nlys = NCCCCNCC(=O)O

Legend:
Assay type in all cases: cell-based
[1] = system: Staphylococcus epidermidis (laboratory strain from clinical isolate); conditions: 16 h
Outline: (§1)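 MIC by microdilution, Iso-sensitest broth, 37 °C/16 h shaking. Inoc.: A650 0.07 → 1:10. Cpd final 2–100 µM, 2-fold series. Absorbance read-out, n=3.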

[2] = system: Staphylococcus aureus (3R7089 strain Oxford/ATCC9144)
Outline: as §1

[3] = system: Escherichia coli K-12 wild-type strain (W3110/ATCC27325); conditions: for MIC E. coli: lowest concentration completely inhibiting growth, 37 °C, 16 h, range 2–100 μM
Outline: as §1

[4] = system: Pseudomonas aeruginosa PA01 (ATCC 15692)
Outline: as §1

[5] = lowest concentration completely inhibiting growth, 37 °C, range 2–100 μM
[6] = lowest concentration completely inhibiting growth, 37 °C, 16 h, range 2–100 μM
[7] = laboratory strain from clinical isolate

Compound	MIC S. epidermidis [1, 5] [µM]	MIC S. aureus [2, 6] [µM]	MIC E. coli [3]	MIC P. aeruginosa [4, 6] [µM]	MIC S. epidermidis [1, 7] [µM]	MIC P. aeruginosa ([4]; ATCC 15692, 16 h) [µM]	activity against E. coli (in words) [3]	activity against P. aeruginosa (in words) [4]	MIC S. aureus ([2]; ATCC9144, 16 h) [µM]
C[C@@H](c1ccccc1)N(CC(N)=O)C(=O)CN(Cc1ccc(F)cc1)C(=O)CN(CCCCN)C(=O)CN(C(=O)CN(Cc1ccc(F)cc1)C(=O)CN(CCCCN)C(=O)CN(C(=O)CN(Cc1ccc(F)cc1)C(=O)CN(CCCCN)C(=O)CN(C(=O)CN(Cc1ccc(F)cc1)C(=O)CNCCCCN)[C@@H](C)c1ccccc1)[C@@H](C)c1ccccc1)[C@@H](C)c1ccccc1 [Peptoid 26, (NLysNpfbNspe)4]	2	2	13 µM	13	–	–	–	–	–
NCCNCC(=O)N(CC(=O)N(CC(=O)N(CCN)CC(=O)N(CC(=O)N(CC(=O)N(CCN)CC(=O)N(CC(=O)N(CC(N)=O)Cc1ccccc1)Cc1ccccc1)Cc1ccccc1)Cc1ccccc1)Cc1ccccc1)Cc1ccccc1 [Peptoid 8, (NaeNpheNphe)3] (H-[Gly(N-2-aminoethyl)][Nphe][Nphe][Gly(N-2-aminoethyl)][Nphe][Nphe][Gly(N-2-aminoethyl)][Nphe][Nphe]-NH2)	100	13	>100 µM	100	>100	>100	–	–	–
CCCCCNCC(=O)N(CC(=O)N(CC(=O)N(CCCCN)CC(=O)N(CC(=O)N(CC(=O)N(CCCCN)CC(=O)N(CC(=O)N(CC(=O)N(CCCCN)CC(=O)N(CC(=O)N(CC(N)=O)[C@@H](C)c1ccccc1)[C@@H](C)c1ccccc1)[C@@H](C)c1ccccc1)[C@@H](C)c1ccccc1)[C@@H](C)c1ccccc1)[C@@H](C)c1ccccc1)[C@@H](C)c1ccccc1)[C@@H](C)c1ccccc1 [Peptoid 30, (NamyNspeNspe)[(NLysNspeNspe)]3]	2	2	50 µM	50	–	–	–	–	–
(NhArgNmfbNmfb)4 [Peptoid 36]	2	2	13 µM	13	–	–	–	–	–
C[C@@H](c1ccccc1)N(CC(N)=O)C(=O)CN(C(=O)CN(CCN)C(=O)CN(C(=O)CN(C(=O)CN(CCN)C(=O)CN(C(=O)CN(C(=O)CN(CCN)C(=O)CN(C(=O)CN(C(=O)CNCCN)[C@@H](C)c1ccccc1)[C@@H](C)c1ccccc1)[C@@H](C)c1ccccc1)[C@@H](C)c1ccccc1)[C@@H](C)c1ccccc1)[C@@H](C)c1ccccc1)[C@@H](C)c1ccccc1 [Peptoid 16, (NaeNspeNspe)4] (H-[Gly(N-2-aminoethyl)][Nspe][Nspe][Gly(N-2-aminoethyl)][Nspe][Nspe][Gly(N-2-aminoethyl)][Nspe][Nspe][Gly(N-2-aminoethyl)][Nspe][Nspe]-NH2)	2	2	100 µM and > 100 µM	50	–	–	negligible activity	–	–
NCCCCNCC(=O)N(CC(=O)N(CC(=O)N(CCCCN)CC(=O)N(CC(=O)N(CC(=O)N(CCCCN)CC(=O)N(CC(=O)N(CC(=O)N(CCCCN)CC(=O)N(CC(=O)N(CC(N)=O)Cc1ccc(Cl)cc1)Cc1ccc(Cl)cc1)Cc1ccc(Cl)cc1)Cc1ccc(Cl)cc1)Cc1ccc(Cl)cc1)Cc1ccc(Cl)cc1)Cc1ccc(Cl)cc1)Cc1ccc(Cl)cc1 [Peptoid 20, (NLysNpcbNpcb)4] (H-[Nlys][Gly(Nα-4-Cl-benzyl)][Gly(Nα-4-Cl-benzyl)][Nlys][Gly(Nα-4-Cl-benzyl)][Gly(Nα-4-Cl-benzyl)][Nlys][Gly(Nα-4-Cl-benzyl)][Gly(Nα-4-Cl-benzyl)][Nlys][Gly(Nα-4-Cl-benzyl)][Gly(Nα-4-Cl-benzyl)]-NH2)	6	25	100 µM and > 100 µM	100	–	>100	–	–	–
CCCCCNCC(=O)N(CC(=O)N(CC(=O)N(CCCCNC(=N)N)CC(=O)N(CC(=O)N(CC(=O)N(CCCCC)CC(=O)N(CC(=O)N(CC(=O)N(CCCCNC(=N)N)CC(=O)N(CC(=O)N(CC(N)=O)[C@@H](C)c1ccccc1)[C@@H](C)c1ccccc1)[C@@H](C)c1ccccc1)[C@@H](C)c1ccccc1)[C@@H](C)c1ccccc1)[C@@H](C)c1ccccc1)[C@@H](C)c1ccccc1)[C@@H](C)c1ccccc1 [Peptoid 40, [(NamyNspeNspe)(NhArgNspeNspe)]2] (H-[NPentylGly][Nspe][Nspe][NhArg][Nspe][Nspe][NPentylGly][Nspe][Nspe][NhArg][Nspe][Nspe]-NH2)	6	3	>100 µM	100	–	>100	not active	not active	–
C[C@@H](c1ccccc1)N(CC(N)=O)C(=O)CN(C(=O)CN(CCCCN)C(=O)CN(C(=O)CN(C(=O)CN(CCCCN)C(=O)CN(C(=O)CN(C(=O)CN(CCCCN)C(=O)CN(C(=O)CN(C(=O)CNCCCCN)[C@@H](C)c1ccccc1)[C@@H](C)c1ccccc1)[C@@H](C)c1ccccc1)[C@@H](C)c1ccccc1)[C@@H](C)c1ccccc1)[C@@H](C)c1ccccc1)[C@@H](C)c1ccccc1 [Peptoid 13, (NLysNspeNspe)4] (H-[Nlys][Nspe][Nspe][Nlys][Nspe][Nspe][Nlys][Nspe][Nspe][Nlys][Nspe][Nspe]-NH2)	1	2	25 µM	50	–	–	–	–	–
COc1ccc(CN(CC(N)=O)C(=O)CN(Cc2ccc(OC)cc2)C(=O)CN(CCCCN)C(=O)CN(Cc2ccc(OC)cc2)C(=O)CN(Cc2ccc(OC)cc2)C(=O)CN(CCCCN)C(=O)CN(Cc2ccc(OC)cc2)C(=O)CN(Cc2ccc(OC)cc2)C(=O)CN(CCCCN)C(=O)CN(Cc2ccc(OC)cc2)C(=O)CN(Cc2ccc(OC)cc2)C(=O)CNCCCCN)cc1 [Peptoid 19, (NLysNpmbNpmb)4]	2	3	>100 µM	100	–	>100	negligible effect	negligible effect	–
C[C@@H](c1ccccc1)N(CC(N)=O)C(=O)CN(C(=O)CN(CCCCCCN)C(=O)CN(C(=O)CN(C(=O)CN(CCCCCCN)C(=O)CN(C(=O)CN(C(=O)CN(CCCCCCN)C(=O)CN(C(=O)CN(C(=O)CNCCCCCCN)[C@@H](C)c1ccccc1)[C@@H](C)c1ccccc1)[C@@H](C)c1ccccc1)[C@@H](C)c1ccccc1)[C@@H](C)c1ccccc1)[C@@H](C)c1ccccc1)[C@@H](C)c1ccccc1 [Peptoid 10, (NahNspeNspe)4] (H-[Gly(N-(CH2)6NH2)][Nspe][Nspe][Gly(N-(CH2)6NH2)][Nspe][Nspe][Gly(N-(CH2)6NH2)][Nspe][Nspe][Gly(N-(CH2)6NH2)][Nspe][Nspe]-NH2; N-terminus assumed)	2	2	25 µM	50	–	–	–	–	–
NCCCCNCC(=O)N(CC(=O)N(CC(=O)N(CCCCN)CC(=O)N(CC(=O)N(CC(=O)N(CCCCN)CC(=O)N(CC(=O)N(CC(N)=O)Cc1ccccc1)Cc1ccccc1)Cc1ccccc1)Cc1ccccc1)Cc1ccccc1)Cc1ccccc1 [Peptoid 5, (NLysNpheNphe)3]	6	25	50 µM	100	–	>100	–	–	–
NCCCCNCC(=O)N(CC(=O)N(CC(=O)N(CCCCN)CC(=O)N(CC(=O)N(CC(N)=O)Cc1ccccc1)Cc1ccccc1)Cc1ccccc1)Cc1ccccc1 [Peptoid 6, (NLysNpheNphe)2] (H-[Nlys][Nphe][Nphe][Nlys][Nphe][Nphe]-NH2)	100	100	>100 µM	100	>100	>100	–	–	>100
C[C@@H](c1ccccc1)N(CC(N)=O)C(=O)CN(C(=O)CN(CCCCNC(=N)N)C(=O)CN(C(=O)CN(C(=O)CN(CCCCNC(=N)N)C(=O)CN(C(=O)CN(C(=O)CN(CCCCNC(=N)N)C(=O)CN(C(=O)CN(C(=O)CNCCCCNC(=N)N)[C@@H](C)c1ccccc1)[C@@H](C)c1ccccc1)[C@@H](C)c1ccccc1)[C@@H](C)c1ccccc1)[C@@H](C)c1ccccc1)[C@@H](C)c1ccccc1)[C@@H](C)c1ccccc1 [Peptoid 34, (NhArgNspeNspe)4] (H-[NhArg][Nspe][Nspe][NhArg][Nspe][Nspe][NhArg][Nspe][Nspe][NhArg][Nspe][Nspe]-NH2)	1	1	6 µM	13	–	–	–	–	–
